{"source": "patent US7589070B2", "about": "“Surface modification for improving biocompatibility” (The Children's Hospital of Philadelphia, priority 2001, dated 2009)", "key": {"[1]": {"experiment": "Surface phosphorus content of pamidronate-treated steel by SEM and EDAX", "format": "physicochemical"}, "[2]": {"system": "rat A10 arterial smooth muscle cells", "experiment": "In vitro transduction of A10 cells by adenovirus GFP tethered to steel stents/rods", "format": "cell-based", "experimental": "A type 5 adenovirus vector encoding GFP was used in this experiment. Stainless steel stents were incubated with amino-pamidronate, SPDP and anti-adenovirus knob F(ab)′2 antibody; amino-pamidronate and SPDP; amino-pamidronate only; or a stent only, without modification. The specific anti-adenovirus knob F(ab′)2 bound stents were incubated in the ad-GFP solution for 1 hour at 37 C. The virus loading in the incubation pool was 1×10^8 pfu/stent for all groups. The stents were then removed from the virus pool and rinsed with PBS followed by overnight washing. Images obtained by atomic force microscopy confirmed that high levels of vector immobilization could be achieved by this method.\nThe virus binding efficacy was evaluated in vitro using rat A10 arterial smooth muscle cells. A cell suspension of 5×10^4 A10 cells per ml of M199 medium was prepared with 10% FBS and 1% penicillin/streptomycin. The stent was rinsed with M199 medium once and equilibrated in the M199 medium at 37 C. for 10 minutes in a 6 well culture plate. The medium from the wells was aspirated, holding the stents, and 2 ml cell suspension was added to each well. Cell transduction was observed by fluorescence microscopy using a FITC filter. […] 90% of cells with adenovirus GFP anti-the antibody bound stent were transduced. […] Consequently, transduction efficiency is enhanced in vitro in antibody-bound stents compared to control stents.\nA10 smooth muscle cells were transduced with SPDP-anti-adenovirus knob F(ab)′2 antibody-adenovirus GFP bound stainless steel rods, and pretreated with either 1.5 M pamidronate, 3.0 M pamidronate or 5.0 M pamidronate. Cell transduction was proportional to the pamidronate concentration used in a reaction. […] Accordingly, A10 cell transduction efficiency is related to pamidronate concentration used in the reaction."}}}
{"smiles": "NCCC(O)(P(=O)(O)O)P(=O)(O)O", "note": "[pamidronate, 3-amino-hydroxypropylidene-1,1-bisphosphonic acid]", "values": [{"measurement": "phosphorus percent by weight", "setting": "[1]; stainless steel rod after reaction with pamidronate at pH 5, EDAX", "result": 13, "unit": "%"}, {"measurement": "phosphorus percent by weight", "setting": "[1]; stainless steel rod after reaction with pamidronate at pH 7, EDAX", "result": 1, "unit": "%"}, {"measurement": "cell transduction (qualitative)", "setting": "[2]; pretreated with 5 M pamidronate", "result": "did not show much increase in cell transduction"}, {"measurement": "cell transduction (qualitative)", "setting": "[2]; steel rods pretreated with 1.5 M pamidronate", "result": "much less cell transduction"}, {"measurement": "cell transduction (qualitative)", "setting": "[2]; steel rods pretreated with 3.0 M pamidronate", "result": "optimal"}]}
